Where two headings read alike, the source gives them in different places. Each block holds one molecule with its values, some of them ahead of it.
Assays:
[1] = Water solubility (remark on administration); format: physicochemical
in vivo [2] = assay: in vivo; design: species or system male Beagle dogs; details: dog, plasma, po, read-out: BA
Protocol: (§1) When Experiment 1 was carried out by using Compound A and D, blood was collected after a given period of time (0, 15, 30, 60 and 120 minutes after). The concentration of the active ingredient in blood was determined with high pressure liquid chromatography, and Area Under the plasma concentration-time Curve (AUC) was calculated and then bioavailability (BA) was calculated according to the following formula by comparing with AUC in intravenous administration. [formula] [AUCid]: AUC in intraduodenal administration [AUCiv]: AUC in intravenous administration
Each one soft capsule prepared in Reference Example 1, 2, 3, 4, 5 and 6 (used only a suspension of Example 2 (compound B) in Reference Example 4,5 and 6) was administered orally with 50 ml of water to six male Beagle dogs fasted an overnight (aged one to two and weighing 10±1 kg). By the same procedures as described in Experiment 2, the concentration of the active ingredient in blood, AUC, and then BA were calculated.
^1 Comparison: Compound A or Compound B (10 mg/5 ml) of water/kg
animal body weight) was orally administered.

in vivo [3] = assay: in vivo; design: species or system male Sprague-Dawley rats; details: rat, BA
Protocol: (§2) The experiment was carried out according to the Yasuhara's method using intestinal loop in rats [see Journal of Pharmacobio-Dynamics, 2, 251 (1979)]. That is, male Sprague-Dawley rats weighing 220-260 g were fasted an overnight prior to surgery; however drinking water was readily accessible. The rats were anesthetized by sodium pentobarbital using an intraperitoneal injection of 50 mg/kg. The small intestine was exposed by a midline abdominal incision. The intestinal loop studied was used approximately 15 cm of the duodenal-jejunal site that was approximately 2 cm off the outlet of bile duct.
The suspension or solution containing active ingredients was directly administered into the loop and the both ends of the loop were closed. […] The active ingredient and the degradation products in sample were determined with high pressure liquid chromatography. […]
as §1, with “[formula] [AUCid]: AUC in intraduodenal administration [AUCiv]: AUC in intravenous administration” left out

in vivo [4] = assay: in vivo; design: species or system male Sprague-Dawley rats; details: rat, 5 mg/0.5 ml/animal, read-out: Remaining ratio of the active ingredient in small intestine; for remaining at 5 min: 5 minutes after; for remaining at 0.25 h: 15 minutes after
Protocol: The inhibitory effect of MCG on the degradation of esters of guanidinobenzoic acid in small intestine
as §2
The suspension or solution containing active ingredients was directly administered into the loop and the both ends of the loop were closed. The experiment with Compound G and I was carried out further by adding pancreatic juice and bile of other rats into the loop by cannula. After a given period of time, the loop was cut out. The contents were washed out with physiological salt solution and/or ethanol, and thereto was added a mixture of 0.1N aqueous methanesulfonic acid, 1,2-dichloroethane and isopropanol. The obtained mixture was centrifuged and the resulting supernatant was used as a sample. In the case of Compound D to H, the washings were directly used as a sample. The active ingredient and the degradation products in sample were determined with high pressure liquid chromatography.
Compound A: p-(p-guanidinobenzoyloxy)phenylacetic acid N,N-dimethylcarbamoylmethyl ester methanesulfonate [drawing 2] Compound B: p-guanidinobenzoic acid 6-amidinonaphth-2-yl ester dimethanesulfonate [drawing 3] Compound C: p-guanidinobenzoic acid methyl ester methanesulfonate [drawing 4] Compound D: 7-(3-tosylaminobicyclo[2.2.1]heptan-2-yl)-5Z-heptenoic acid ethyl ester [drawing 5] Compound E: salicylic acid ethyl ester [drawing 6] Compound F: aspirin [drawing 7] Compound G: 6-keto-16S,18S-ethano-20-ethyl-PGE1 leucine amide [drawing 8] Compound H: N-[3-[N-(4-chlorobenzyl)carbamoyl]propanoyl]-L-prolinal [drawing 9] Compound I: 7-(3-tosylaminobicyclo[2.2.1]heptan-2-yl)-5Z-heptenoic acid glycine amide [drawing 10] (wherein G is a guanidino group.)
H2 O: dissolving in the ratio of 5 mg of active ingredient/0.5 ml of water/animal.
MCM8(glyceryl monocaprylate): suspending in the ratio of 5 mg of active ingredient/0.5 ml of MCM8/animal.
MCT8(glyceryl tricaprylate): suspending in the ratio of 5 mg of active ingredient/0.5 ml of MCT8/animal.
2. 0.5 ml of physiological salt solution (referred to "SALT") for Compound D instead of water, because of its water-insoluble character.
3. 0.1 mg of Compound G were used because of its strong pharmacological effect, and isotonic phosphate buffer solution (referred to "PHOS") (pH 6.5) instead of water was used because of its water-insoluble character.

solubility in water [1]: water-insoluble
SMILES: CCCC[C@H]1CC[C@H]([C@H](O)/C=C/[C@H]2[C@H](O)CC(=O)[C@@H]2CC(=O)CCCCC(=O)NC(CC(C)C)C(=O)O)C1 (stereo partly drawn) [Compound G, 6-keto-16S,18S-ethano-20-ethyl-PGE1 leucine amide]

solubility in water [1]: poor solubility
SMILES: COC(=O)c1ccc(NC(=N)N)cc1.CS(=O)(=O)O [Compound C, p-guanidinobenzoic acid methyl ester methanesulfonate]

solubility in water [1]: water-insoluble
SMILES: CCOC(=O)CCC/C=C\CC1C2CCC(C2)C1NS(=O)(=O)c1ccc(C)cc1 (stereo not drawn) [Compound D, 7-(3-tosylaminobicyclo[2.2.1]heptan-2-yl)-5Z-heptenoic acid ethyl ester]

The remaining lines, values behind:

SMILES: CN(C)C(=O)COC(=O)Cc1ccc(OC(=O)c2ccc(NC(=N)N)cc2)cc1.CS(=O)(=O)O [Compound A, p-(p-guanidinobenzoyloxy)phenylacetic acid N,N-dimethylcarbamoylmethyl ester methanesulfonate]
bioavailability (in vivo [2]; 10 mg/kg, Comparison A (10 mg/5 ml of water/kg body weight)): 6.3 ± 2.4% | bioavailability (in vivo [2]; Reference Example 1 (soft capsule of Example 1 suspension)): 10.9 ± 4.3% | bioavailability (in vivo [2]; Reference Example 2 (enteric-coated soft capsule, carboxymethylethyl cellulose)): 18.4 ± 7.3% | bioavailability (in vivo [2]; Reference Example 3 (enteric-coated soft capsule, hydroxypropylmethyl cellulose acetate succinate)): 17.2 ± 11.5% | bioavailability (in vivo [3]): 3%

SMILES: CS(=O)(=O)O.CS(=O)(=O)O.N=C(N)Nc1ccc(C(=O)Oc2ccc3cc(C(=N)N)ccc3c2)cc1 [Compound B, p-guanidinobenzoic acid 6-amidinonaphth-2-yl ester dimethanesulfonate]
remaining at 5 min (in vivo [4]; H2O (COMPARISON)): 68.8 ± 1.7% | remaining at 0.25 h (in vivo [4]; H2O (COMPARISON)): 27.5 ± 5.2% | remaining at 5 min (in vivo [4]; MCM8 (INVENTION)): 90 ± 15.6% | remaining at 0.25 h (in vivo [4]; MCM8 (INVENTION)): 70.5 ± 12.1% | remaining at 5 min (in vivo [4]; MCT8 (INVENTION)): 80 ± 3.2% | remaining at 0.25 h (in vivo [4]; MCT8 (INVENTION)): 60.8 ± 7.5% | bioavailability (in vivo [2]; 10 mg/kg, Comparison B (10 mg/5 ml of water/kg body weight)): 1.7 ± 1.2% | bioavailability (in vivo [2]; Reference Example 4 (soft capsule of Example 2 suspension)): 3.2 ± 1.7% | bioavailability (in vivo [2]; Reference Example 5 (enteric-coated soft capsule, as Reference Example 2)): 5 ± 2.5% | bioavailability (in vivo [2]; Reference Example 6 (enteric-coated soft capsule, as Reference Example 3)): 5.1 ± 2.1%

— US5004612A, “Pharmaceutical compositions comprising esters or amides as active ingredients” (priority 1987, dated 1991)
